# Experimental data: PMC9211397, “High-Throughput Screening Platform To Identify Inhibitors of Protein Synthesis with Potential for the Treatment of Malaria” (Antimicrobial Agents and Chemotherapy, 2022)
# Key:
# [1] = molecular target: P. falciparum translation (P. falciparum lysate); assay: P. falciparum in vitro translation (PfIVT) assay, lysate-based, luciferase reporter; assay type: biochemical, Plasmodium falciparum; conditions: established inhibitors of protein translation; read-out: IC50 values, µM PfIVT (Table S1)
# Text: (§1) Our P. falciparum in vitro translation (PfIVT) assay is built upon previously established assays ([14], [17]) and is summarized in Fig. 1A. In this assay, successful reconstitution of Plasmodium protein translation is reported via synthesis of a luciferase reporter. For PfIVT, two independent untranslated regions (UTRs), previously shown to promote strong levels of translation ([17]), were introduced upstream and downstream of the luciferase. The 5′ UTR from P. falciparum histidine-rich protein 3 (PfHrp3) ([18]) was introduced upstream of the reporter gene, and the 3′ UTR from P. falciparum histidine-rich protein 2 (PfHrp2) gene ([19]) was introduced downstream. For the reporter construct to support our complementary human IVT assay (HsIVT), the 5′ UTR was replaced with an internal ribosome entry site (IRES) from encephalomyocarditis virus (EMCV) ([20]) and the 3′ UTR was replaced with a poly(A) tail ([21]). […] Finally, a 30-bp poly(A) tail, present within the vector and downstream of the luciferase gene, was inserted to enhance mRNA stability ([21]).
# (§2) Translationally active P. falciparum or human embryonic kidney (HEK) 293F lysates were supplemented with accessory, helper, amino acid, and energy regeneration solutions (see Materials and Methods for details). In vitro translation reactions were initiated by the addition of purified mRNA to each reaction well. Using this basic assay format, a number of parameters were assessed and optimized, namely, assay temperature, time, mRNA concentration, and reaction volume (summarized in Fig. S2 in the supplemental material). In addition, we compared the luminescence signal of the CBG firefly luciferase with CBG99, derived from the click beetle […] ([18]).
# 3D7 parasites were synchronized following two rounds of treatment with D-sorbitol (5%), as previously described ([40]). The hematocrit was reduced from 5% (for standard culture) to 1.5 to 2% and cultures were transferred into HYPERflasks (Corning). Fresh medium was added once or twice daily. […] Harvested red blood cells (infected) were lysed by incubation in 0.1% (wt/vol) saponin on ice for 10 min with gentle agitation. Free parasites were harvested by centrifugation (2,800 × g, 10 min, 4°C) and washed 3 times in wash buffer (WB; 100 mM potassium acetate, 2.5 mM magnesium acetate, 45 mM HEPES [pH 7.4], 250 mM sucrose, 2 mM dithiothreitol, and 15 μM leupeptin) to remove lysed red blood cell debris. The resulting pellet was resuspended in 1 volume of WB supplemented with cOmplete EDTA-free protease inhibitor cocktail (Roche; 1 tablet/20 mL) and human RNase A inhibitor (Sigma; 5 U/mL). Parasite lysis was achieved by nitrogen cavitation using a prechilled 45-mL Parr cell disruption vessel (1,500 lb/in^2, 60 min, 4°C). To clarify the lysate, it was centrifuged (10,000 × g, 15 min, 4°C), and the supernatant was collected, transferred into fresh tubes, and centrifuged (30,000 × g, 15 min, 4°C). As a quality assurance step for each lysate, the RNA content of the resulting supernatant was determined using a NanoDrop spectrophotometer (Shimadzu). Supernatants with RNA levels of >250 ng/μL were aliquoted (100 μL), flash frozen in liquid nitrogen, and stored at −80°C.
# [2] = system: asexual-blood-stage (ABS) P. falciparum; assay: SYBR green-based P. falciparum asexual growth inhibition assay; assay type: cell-based; conditions: Plasmodium falciparum; established inhibitors of protein translation; read-out: EC50 values, µM PfABS (Table S1)
# Description: The Plasmodium falciparum reference strain 3D7 used throughout this study was cultured as previously described ([39]). Briefly, cultures incubated at 37°C in a humidified atmosphere of 1% O2 and 3% CO2 in balance with N2 were maintained in RPMI 1640 media supplemented with 5% A^+ human red blood cells (provided by the Scottish National Blood Transfusion Service), 25 mM HEPES, 2 mM L-glutamine, 0.5% AlbuMAX II (Gibco), 12 mM sodium bicarbonate, 0.2 mM hypoxanthine, and 20 mg/L gentamicin (pH 7.3).
# Our SYBR green asexual-growth assay was based on a previous report ([45]). In brief, 96-well black clear-bottom plates (Corning) were preprinted with a compound and normalized with DMSO to 0.5% of a total assay volume of 100 μL. Highly synchronized ring-stage parasites and blood were added to a 2% final parasitemia and 1% hematocrit. The compounds were incubated with parasites for 72 h prior to freezing at −20°C (to aid cell lysis). The plate was thawed on ice and lysis buffer (20 mM Tris pH 7.5, 5 mM EDTA, 0.008% [w/v] saponin, […]) containing SYBR green I (Thermo Fisher Scientific) at a final concentration of 0.02% (v/v) was added. The 96-well plate was equilibrated to room temperature for 1 h before fluorescence was determined on a TECAN Infinite Pro 200 microplate reader using green fluorescent protein (GFP) filters (excitation, 485 nm; emission, 535 nm). Data were fitted to a two-parameter equation using GraFit version 7.0 (Erithacus Software), and EC50 values were calculated. An excess of the standard inhibitor mefloquine (10 μM) was used to define 0% parasite growth.
# [3] = system: human translation (HEK 293F lysate); assay: Human in vitro translation (HsIVT) assay, HEK 293F lysate, luciferase reporter; assay type: biochemical; conditions: for effect on translation in the HsIVT assay (Fig. S3A): 10 µM, three technical replicates; for IC50: weighted mean ± SD from at least two biological replicates, read-out: IC50 in the HsIVT assay (Fig. S3B)
# Text: as §1, §2
# FreeStyle human embryonic kidney (HEK) 293F cells (Thermo Fisher Scientific) were grown in 500-mL polycarbonate Erlenmeyer vented flasks (Corning) containing FreeStyle 293 expression medium (Life Technologies) upon reaching a density of approximately 2 × 10^6. Cells were then centrifuged at 1,000 × g for 10 min at 4°C, the medium was discarded, and the resulting pellet was washed once in buffer II containing 20 U of human placental RNase inhibitor (Sigma-Aldrich) and cOmplete EDTA-free inhibitor cocktail (Roche) before being centrifuged at 2,800 × g for 10 min. Clarified HEK cell lysate was obtained in the same way as described for P. falciparum lysate.
# PfIVT and HsIVT reactions (5 μL final volume) were performed in 384-well plates (Corning) containing 50% lysate from cells (either P. falciparum or HEK 293F), 10% amino acid solution (final concentration of 400 μM for each amino acid in 60 mM KOH; biotechrabbit), 10% energy recovery solution (final assay concentrations of 40 mM HEPES [pH 7.4], 1.5 mM ATP, 0.15 mM GTP, […] creatine phosphate, and 40 U/mL creatine phosphokinase), 10% helper solution (final assay concentrations of 200 μM cystine, 2% polyethylene glycol 3000 [PEG 3000], 1 mM spermidine, 0.5 mM folinic acid, and 15 μM leupeptin), 10% supplemental salt solution (22.5 mM HEPES [pH 7.4], 50 mM potassium acetate, 1 mM magnesium acetate, 1 mM DTT, 1 U/mL human placental RNase inhibitor, 0.1 mM leupeptin), and 10% cbg99 luciferase mRNA (3,000 ng/mL). A master mix solution containing all components was prepared on ice prior to assays, and 5 μL was dispensed into wells using an automated Integra VIAFLO 16-channel 12.5-μL pipette.
Compound,IC50 [1] [µM],EC50 [2] [µM],inhibition of translation in HsIVT assay (validation) [3],effect on translation in the HsIVT assay (Fig. S3A) [3],IC50 [3] [nM]
"CC[C@H]1CN2CCc3cc(OC)c(OC)cc3[C@@H]2C[C@@H]1C[C@H]1NCCc2cc(OC)c(OC)cc21 [Emetine, emetine, reference compound]",1.8,0.03,successfully inhibit translation,ablated activity,800 ± 100
"O=C(NCCN1CCCC1)c1cc(-c2ccc(CN3CCOCC3)cc2)nc2ccc(F)cc12 [DDD107498/M5717, reference compound]",0.1,0.0008,,little or no effect,
"O=C(CC1NCCCC1O)Cn1cnc2cc(Br)c(Cl)cc2c1=O (stereo not shown) [Halofuginone, halofuginone, reference compound]",0.3,0.0004,successfully inhibit translation,ablated activity,1700 ± 40
